# Assay results published in patent US7709636B2, “Pyrazole sulfonylurea compound and herbicide” (Nissan Chemical Industries, Ltd., priority 2004, dated 2010).
# How the values were obtained:
# [1] = system: Chenopodium album; assay: Herbicidal effect test by foliage treatment; type: in vivo; conditions: 1.6 g/a; foliage treatment after growth of 14 days; 3 weeks after treatment
# Method in brief: (§1)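 Post-emergence foliar spray: plants raised 14 d in greenhouse (25–30° C) from seed in sterilized diluvial soil, sprayed with diluted wettable powder formulation, injury rated visually at 3 wk.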
# [2] = system: Echinochloa crus-galli; assay: Herbicidal effect test by foliage treatment; type: in vivo; conditions: 1.6 g/a; foliage treatment after growth of 14 days; 3 weeks after treatment
# Method in brief: as §1
# [3] = system: Setaria viridis; assay: Herbicidal effect test by foliage treatment; type: in vivo; conditions: 1.6 g/a; foliage treatment after growth of 14 days; 3 weeks after treatment
# Method in brief: as §1
# [4] = system: Beta vulgaris (beet); assay: Herbicidal effect test by foliage treatment; type: in vivo; conditions: 1.6 g/a; foliage treatment after growth of 14 days; 3 weeks after treatment
# Method in brief: as §1
# [5] = system: Digitaria adscendes; assay: Herbicidal effect test by foliage treatment; type: in vivo; conditions: 1.6 g/a; foliage treatment after growth of 14 days; 3 weeks after treatment
# Method in brief: as §1
# [6] = system: Triticum aestivum (wheat); assay: Herbicidal effect test by foliage treatment; type: in vivo; conditions: 1.6 g/a; foliage treatment after growth of 14 days; 3 weeks after treatment
# Method in brief: as §1
# [7] = system: corn (Zea mays); assay: Herbicidal effect test by foliage treatment; type: in vivo; conditions: 1.6 g/a; foliage treatment after growth of 14 days; 3 weeks after treatment
# Method in brief: as §1
# [8] = system: Abutilon avicennae; assay: Herbicidal effect test by foliage treatment; type: in vivo; conditions: 1.6 g/a; foliage treatment after growth of 14 days; 3 weeks after treatment
# Method in brief: as §1
# [9] = system: Ambrosia elatior; assay: Herbicidal effect test by foliage treatment; type: in vivo; conditions: 1.6 g/a; foliage treatment after growth of 14 days; 3 weeks after treatment
# Method in brief: as §1
# [10] = system: Black-grass; assay: Herbicidal effect test by foliage treatment; type: in vivo; conditions: 1.6 g/a; foliage treatment after growth of 14 days; 3 weeks after treatment
# Method in brief: as §1
# [11] = system: Polygonum blumei; assay: Herbicidal effect test by foliage treatment; type: in vivo; conditions: 1.6 g/a; foliage treatment after growth of 14 days; 3 weeks after treatment
# Method in brief: as §1
# [12] = system: Avena fatua; assay: Herbicidal effect test by foliage treatment; type: in vivo; conditions: 1.6 g/a; foliage treatment after growth of 14 days; 3 weeks after treatment
# Method in brief: as §1
# [13] = system: soybean (Glycine max); assay: Herbicidal effect test by foliage treatment; type: in vivo; conditions: 1.6 g/a; foliage treatment after growth of 14 days; 3 weeks after treatment
# Method in brief: as §1
# [14] = system: Amaranthus retroflexus; assay: Herbicidal effect test by foliage treatment; type: in vivo; conditions: 1.6 g/a; foliage treatment after growth of 14 days; 3 weeks after treatment
# Method in brief: as §1
# [15] = system: Stellaria media; assay: Herbicidal effect test by foliage treatment; type: in vivo; conditions: 1.6 g/a; foliage treatment after growth of 14 days; 3 weeks after treatment
# Method in brief: as §1
# [16] = system: Echinochloa crus-galli; assay: Herbicidal effect test in submerged condition by treatment during weed-growth stage (1); type: in vivo; conditions: 0.64 g/a, treated at 1st to 2nd leaf stage, 3 weeks after treatment
# Method in brief: (§2)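 Paddy-soil pots flooded to 4 cm water depth were sown and grown in a greenhouse at 25 to 30° C until weeds reached 1st to 2nd leaf stage. A wettable powder diluted in water to a predetermined formulation amount was applied to the water surface. Herbicidal effect was scored 3 weeks after treatment against set criteria.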
# [17] = system: Scirpus juncoides; assay: as above; type: in vivo; conditions: 0.64 g/a, treated at 1st to 2nd leaf stage, 3 weeks after treatment
# Method in brief: as §2
# [18] = system: Monochoria vaginalis; assay: as above; type: in vivo; conditions: 0.64 g/a, treated at 1st to 2nd leaf stage, 3 weeks after treatment
# Method in brief: as §2
# [19] = system: Echinochloa crus-galli; assay: Herbicidal effect test in submerged condition by treatment before weed-generation (1); type: in vivo; conditions: 0.64 g/a, water surface treated on day of sowing, 3 weeks after treatment
# Method in brief: (§3)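 Pre-emergence water-surface application of diluted wettable-powder formulation at a predetermined rate, same day as sowing, in flooded alluvial soil (4 cm water) with transplanted 2.5-leaf rice. Grown 3 weeks at 25 to 30° C in greenhouse; rated 0–5 by herbicidal rate.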
# [20] = system: Scirpus juncoides; assay: as above; type: in vivo; conditions: 0.64 g/a, water surface treated on day of sowing, 3 weeks after treatment
# Method in brief: as §3
# [21] = system: Monochoria vaginalis; assay: as above; type: in vivo; conditions: 0.64 g/a, water surface treated on day of sowing, 3 weeks after treatment
# Method in brief: as §3
# [22] = system: direct sown rice; assay: Herbicidal effect test by soil treatment; type: in vivo, Oryza sativa; conditions: 1.6 g/a, 3 weeks after treatment
# Method in brief: (§4)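 Pre-emergence soil application: wettable powder formulation, water-diluted to set dose, sprayed evenly over soil surface after sowing; seeds under ~1.5 cm sterilized diluvial soil. Effect rated at 3 wk by criteria scale.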
# [23] = system: direct sown rice; assay: Herbicidal effect test by foliage treatment; type: in vivo, Oryza sativa; conditions: 1.6 g/a; foliage treatment after growth of 14 days; 3 weeks after treatment
# Method in brief: as §1
# [24] = system: Chenopodium album; assay: Herbicidal effect test by soil treatment; type: in vivo; conditions: 1.6 g/a, 3 weeks after treatment
# Method in brief: as §4
# [25] = system: Echinochloa crus-galli; assay: Herbicidal effect test by soil treatment; type: in vivo; conditions: 1.6 g/a, 3 weeks after treatment
# Method in brief: as §4
# [26] = system: Setaria viridis; assay: Herbicidal effect test by soil treatment; type: in vivo; conditions: 1.6 g/a, 3 weeks after treatment
# Method in brief: as §4
# [27] = system: Beta vulgaris (beet); assay: Herbicidal effect test by soil treatment; type: in vivo; conditions: 1.6 g/a, 3 weeks after treatment
# Method in brief: as §4
# [28] = system: Digitaria adscendes; assay: Herbicidal effect test by soil treatment; type: in vivo; conditions: 1.6 g/a, 3 weeks after treatment
# Method in brief: as §4
# [29] = system: Triticum aestivum (wheat); assay: Herbicidal effect test by soil treatment; type: in vivo; conditions: 1.6 g/a, 3 weeks after treatment
# Method in brief: as §4
# [30] = system: corn (Zea mays); assay: Herbicidal effect test by soil treatment; type: in vivo; conditions: 1.6 g/a, 3 weeks after treatment
# Method in brief: as §4
# [31] = system: Abutilon avicennae; assay: Herbicidal effect test by soil treatment; type: in vivo; conditions: 1.6 g/a, 3 weeks after treatment
# Method in brief: as §4
# [32] = system: Ambrosia elatior; assay: Herbicidal effect test by soil treatment; type: in vivo; conditions: 1.6 g/a, 3 weeks after treatment
# Method in brief: as §4
# [33] = system: Black-grass; assay: Herbicidal effect test by soil treatment; type: in vivo; conditions: 1.6 g/a, 3 weeks after treatment
# Method in brief: as §4
# [34] = system: Polygonum blumei; assay: Herbicidal effect test by soil treatment; type: in vivo; conditions: 1.6 g/a, 3 weeks after treatment
# Method in brief: as §4
# [35] = system: Avena fatua; assay: Herbicidal effect test by soil treatment; type: in vivo; conditions: 1.6 g/a, 3 weeks after treatment
# Method in brief: as §4
# [36] = system: soybean (Glycine max); assay: Herbicidal effect test by soil treatment; type: in vivo; conditions: 1.6 g/a, 3 weeks after treatment
# Method in brief: as §4
# [37] = system: Amaranthus retroflexus; assay: Herbicidal effect test by soil treatment; type: in vivo; conditions: 1.6 g/a, 3 weeks after treatment
# Method in brief: as §4
# [38] = system: Stellaria media; assay: Herbicidal effect test by soil treatment; type: in vivo; conditions: 1.6 g/a, 3 weeks after treatment
# Method in brief: as §4
compound,measurement,setting,value
"COc1cc(OC)nc(NC(=O)NS(=O)(=O)c2c(C3=NOCC(C)(C)O3)c(C)nn2C)n1 [Compound 7, N-((4,6-dimethoxypyrimidin-2-yl)aminocarbonyl)-4-(5,5-dimethyl-5H,6H-1,4,2-dioxadin-3-yl)-1,3-dimethylpyrazole-5-sulfonamide]","herbicidal effect, K: Chenopodium album",[1],5 (Herbicidal rate 90% or more (almost complete death))
same,"herbicidal effect, A: Echinochloa crus-galli",[2],5 (Herbicidal rate 90% or more (almost complete death))
same,"herbicidal effect, E: Setaria viridis",[3],4 (Herbicidal rate 70% or more and less than 90%)
same,"herbicidal effect, f: Beta vulgaris (beet)",[4],5 (Herbicidal rate 90% or more (almost complete death))
same,"herbicidal effect, D: Digitaria adscendes",[5],5 (Herbicidal rate 90% or more (almost complete death))
same,"herbicidal effect, e: Triticum aestivum (wheat)",[6],5 (Herbicidal rate 90% or more (almost complete death))
same,"herbicidal effect, b: corn (Zea mays)",[7],5 (Herbicidal rate 90% or more (almost complete death))
same,"herbicidal effect, H: Abutilon avicennae",[8],5 (Herbicidal rate 90% or more (almost complete death))
same,"herbicidal effect, I: Ambrosia elatior",[9],5 (Herbicidal rate 90% or more (almost complete death))
same,"herbicidal effect, G: Black-grass",[10],5 (Herbicidal rate 90% or more (almost complete death))
same,"herbicidal effect, L: Polygonum blumei",[11],5 (Herbicidal rate 90% or more (almost complete death))
same,"herbicidal effect, F: Avena fatua",[12],5 (Herbicidal rate 90% or more (almost complete death))
same,"herbicidal effect, c: soybean (Glycine max)",[13],5 (Herbicidal rate 90% or more (almost complete death))
same,"herbicidal effect, J: Amaranthus retroflexus",[14],4 (Herbicidal rate 70% or more and less than 90%)
same,"herbicidal effect, M: Stellaria media",[15],5 (Herbicidal rate 90% or more (almost complete death))
same,"herbicidal effect, A: Echinochloa crus-galli",[16],5 (Herbicidal rate 90% or more (almost complete death))
same,"herbicidal effect, B: Scirpus juncoides",[17],5 (Herbicidal rate 90% or more (almost complete death))
same,"herbicidal effect, C: Monochoria vaginalis",[18],5 (Herbicidal rate 90% or more (almost complete death))
same,"herbicidal effect, A: Echinochloa crus-galli",[19],5 (Herbicidal rate 90% or more (almost complete death))
same,"herbicidal effect, B: Scirpus juncoides",[20],5 (Herbicidal rate 90% or more (almost complete death))
same,"herbicidal effect, C: Monochoria vaginalis",[21],5 (Herbicidal rate 90% or more (almost complete death))
same,"herbicidal effect, d: direct sown rice",[22],5 (Herbicidal rate 90% or more (almost complete death))
same,"herbicidal effect, d: direct sown rice",[23],2 (Herbicidal rate 20% or more and less than 40%)
same,"herbicidal effect, K: Chenopodium album",[24],5 (Herbicidal rate 90% or more (almost complete death))
same,"herbicidal effect, A: Echinochloa crus-galli",[25],4 (Herbicidal rate 70% or more and less than 90%)
same,"herbicidal effect, E: Setaria viridis",[26],4 (Herbicidal rate 70% or more and less than 90%)
same,"herbicidal effect, f: Beta vulgaris (beet)",[27],5 (Herbicidal rate 90% or more (almost complete death))
same,"herbicidal effect, D: Digitaria adscendes",[28],4 (Herbicidal rate 70% or more and less than 90%)
same,"herbicidal effect, e: Triticum aestivum (wheat)",[29],5 (Herbicidal rate 90% or more (almost complete death))
same,"herbicidal effect, b: corn (Zea mays)",[30],4 (Herbicidal rate 70% or more and less than 90%)
same,"herbicidal effect, H: Abutilon avicennae",[31],4 (Herbicidal rate 70% or more and less than 90%)
same,"herbicidal effect, I: Ambrosia elatior",[32],5 (Herbicidal rate 90% or more (almost complete death))
same,"herbicidal effect, G: Black-grass",[33],5 (Herbicidal rate 90% or more (almost complete death))
same,"herbicidal effect, L: Polygonum blumei",[34],5 (Herbicidal rate 90% or more (almost complete death))
same,"herbicidal effect, F: Avena fatua",[35],4 (Herbicidal rate 70% or more and less than 90%)
same,"herbicidal effect, c: soybean (Glycine max)",[36],3 (Herbicidal rate 40% or more and less than 70%)
same,"herbicidal effect, J: Amaranthus retroflexus",[37],5 (Herbicidal rate 90% or more (almost complete death))
same,"herbicidal effect, M: Stellaria media",[38],5 (Herbicidal rate 90% or more (almost complete death))
